How the values were obtained:
[1] = system: HOS (human osteogenic sarcoma); assay: Calcein AM cytotoxicity assay, HOS; format: cell-based; details: 72 hours incubation
Text: (§1) Because toxic compounds negatively influence metabolic processes in cells, many standard cytotoxicity assays are based on measurement of metabolisation rate of various artificial substrates. Resulting product is then quantified e.g. by means of spectrometry. The assays can be easily modified for use in 96-well plates. For evaluation of cytotoxic effect of the novel substituted 9-substituted cytokinin derivatives of this invention, a microtiter assay based on quantification of metabolisation of Calcein AM was used. The assay is widely used in drug screening programs and in chemosensitivity testing. In the living cells, Calcein AM is enzymatically hydrolysed and accumulation of resulting calcein is manifested by green fluorescence.
(§2) In the routine screening the following cell lines have been used: CEM (T-lymphoblastoid leukemia), HL-60 (promyelocytic leukemia), K-562 (human erythroleukemia), MCF-7 (breast carcinoma), HOS (human osteogenic sarcoma), and G-361 (human malignant melanoma). Normal human fibroblasts BJ were used as a control for routine screening of the compounds. The cells were kept in Nunc/Corning 80 cm^2 plastic bottles and grown in cell culture medium (DMEM containing 5 g/l glucose, 2 mM glutamine, 100 U/ml penicilline, 100 μg/ml streptomycine, 10% fetal bovine serum and sodium hydrogencarbonate), the compounds were prepared according to the procedure of the present invention.
(§3) The cell suspensions were prepared and diluted according to the particular cell type and the expected target cell density (2.500-30.000 cells per well based on cell growth characteristics) and pippetted (80 μl) into 96-well plates. Inoculates were allowed a pre-incubation period of 24 hours at 37° C. and 5% CO2 for stabilisation. Tested compound was added in total volume of 20 μl of water at time zero. Usually, test compound was evaluated at six 3-fold dilutions. In routine testing, the highest concentration tested was 166.7 μM. All drug concentrations were tested in triplicates. Incubations of cells with the test compounds lasted for 72 hours at 37° C., in 5% CO2 atmosphere and 100% humidity. At the end of incubation period Calcein AM in PBS was added into final concentration of 1 μg/ml. After another 1 hour of incubation fluorescence (FD) was measured with the Labsystem FIA Reader Fluoroscan Ascent (Microsystems). Tumor cell survival (TCS) was estimated using the following equation: […]=(FDdrug exposed well/FDcontrol well)×100%. The GI50 value, the drug concentration causing 50% reduction of esterase activity, was calculated from the obtained dose response curves (FIG. 1).
(§4) Cytoxicity of novel compounds was tested on panel of cell lines of different histogenetic and species origin (Table 3). […] The effective novel derivatives killed tumour cells in concentrations close to 0.1-50 μM.

[2] = system: K-562 (human erythroleukemia); assay: Calcein AM cytotoxicity assay, K-562; format: cell-based
Text: as §1, §2, §3, §4

MCF-7 (breast carcinoma) = assay: Calcein AM cytotoxicity assay, MCF7; format: cell-based; details: 72 hours incubation
Text: as §1, §2, §3, §4

[3] = system: Normal human fibroblasts BJ; assay: Calcein AM cytotoxicity assay, BJ; format: cell-based; details: 72 hours incubation
Text: as §1, §2, §3, §4

[4] = system: G-361 (human malignant melanoma); assay: Calcein AM cytotoxicity assay, G-361; format: cell-based; details: 72 hours incubation
Text: as §1, §2, §3, §4

[5] = system: CEM (T-lymphoblastoid leukemia); assay: Calcein AM cytotoxicity assay, CEM; format: cell-based; details: 72 hours incubation, Calcein AM
Text: as §1, §2, §3, §4

[6] = system: HL-60 (promyelocytic leukemia); assay: Calcein AM cytotoxicity assay, HL60; format: cell-based, human
Text: as §1, §2, §3, §4

Human lymphocytes = assay: Immunosuppressive activity, 3H-thymidine incorporation in concanavalin A activated lymphocytes; format: cell-based; details: 72 hours, [3H]-TdR incorporation, read-out: Human lymphocytes ED50
Text: One of the most important parameters of specific cellular immunity is the proliferative response of lymphocytes to antigens or polyclonal mitogens. The majority of normal mammalian peripheral lymphocytes comprise resting cells. Antigens or nonspecific polyclonal mitogens have the capacity to activate lymphoid cells and this is accompanied by dramatic changes of intracellular metabolism (mitochondrial activity, protein synthesis, nucleic acids synthesis, formation of blastic cells and cellular proliferation). […] Variety of in vitro assays was developed to measure proliferative response of lymphocytes. The most commonly used is ^3H-thymidine incorporation method.
During cell proliferation, DNA has to be replicated before the cell is divided into two daughter cells. This close association between cell doublings and DNA synthesis is very attractive for assessing cell proliferation. If labelled DNA precursors are added to the cell culture, cells that are about to divide incorporate the labelled nucleotide into their DNA. Traditionally, those assays usually involve the use of radiolabelled nucleosides, particularly tritiated thymidine ([^3H]-TdR). The amount of [^3H]-TdR incorporated into the cellular DNA is quantified by liquid scintillation counting.
Human heparinized peripheral blood was obtained from healthy volunteers by cubital vein punction. The blood was diluted in PBS (1:3) and mononuclear cells were separated by centrifugation in Ficoll-Hypaque density gradient (Pharmacia, 1.077 g/ml) at 2200 rpm for 30 minutes. Following centrifugation, lymphocytes were washed in PBS and resuspended in cell culture medium (RMPI 1640, 2 mM glutamine, 100 U/ml penicillin, 100 μg/ml streptomycin, 10% fetal calf serum and sodium bicarbonate).
The cells were diluted at target density of 1.100.000 cells/ml and were added by pipette (180 μl) into 96-well microtiter plates. Four-fold dilutions of the intended test concentration were added at time zero in 20 μl aliquots to the microtiter plate wells. Usually, test compound was evaluated at six 4-fold dilutions. In routine testing, the highest well concentration was 266.7 μM. All drug concentrations were examined in duplicates. All wells with exception of unstimulated controls were activated with 50 μl of concanavalin A (25 μg/ml). Incubations of cells with test compounds lasted for 72 hours at 37° C., in 5% CO2 atmosphere and 100% humidity. At the end of incubation period, the cells were assayed by using the [^3H]-TdR:
Cell cultures were incubated with 0.5 μCi (20 μl of stock solution 500 μCi/ml) per well for 6 hours at 37° C. and 5% CO2. The automated cell harvester was used to lyse cells in water and adsorb the DNA onto glass-fiber filters in the format of microtiter plate. The DNA incorporated [^3H]-TdR was retained on the filter while unincorporated material passes through. The filters were dried at room temperature overnight, sealed into a sample bag with 10-12 ml of scintillant. The amount of [^3H]-TdR present in each filter (in cpm) was determined by scintillation counting in a Betaplate liquid scintillation counter. The effective dose of immunosuppressant (ED) was calculated using the following equation: ED=(CCPMdrug exposed well/mean CCPMcontrol wells)×100%. The ED50 value, the drug concentration inhibiting proliferation of 50% of lymphocytes, was calculated from the obtained dose response curves.
To evaluate immunosuppressive activity of substituted adenines, their ability to inhibit polyclonal mitogen induced proliferation of normal human lymphocytes was analyzed (Table 4). […] Effective immunosuppressive dose of new derivatives under in vitro conditions was close to 10-40 μM.

[7] = system: cytokinin-dependent tobacco callus Nicotiana tabacum L. cv. Wisconsin 38; assay: Growth of cytokinin-dependent tobacco callus; format: cell-based; details: for Activity (%) [10^−5 mol · l^−1 KR = 100%]: at concentration with highest activity, relative to control cytokinin; for Concentration with highest activity: tobacco callus fresh weight after four weeks
Experimental: Cytokinin effect of newly prepared derivatives was tested using cytokinin-dependent tobacco callus. The cytokinin-dependent tobacco callus Nicotiana tabacum L. cv. Wisconsin 38 was maintained at 25° C. in darkness on modified MS medium, containing per 1 liter: 4 μmol of nicotinic acid, 2.4 μmol of pyridoxine hydrochloride, 1.2 μmol of thiamine, 26.6 μmol of glycine, 1.37 μmol of glutamine, 1.8 μmol of myo-inositol, 30 g of sucrose, 8 g of agar, 5.37 μmol of NAA and 0.5 μmol of the compound tested. Subcultivation was carried out every three weeks. Fourteen days before the bioassay, the callus tissue was transferred to the media without 6-benzylaminopurine. The biological activity was determined from the increase of the fresh callus weight after four weeks of cultivation. Five replicates were prepared for each concentration of the compound tested and the entire test was repeated twice. […] The compounds to be tested were dissolved in dimethylsulfoxide (DMSO) and the solution brought up to 10^−3 M with distilled water. […] The stimulatory activity was calculated from the dose-dependent fresh weight callus growth curves.
From the obtained data, the concentration with the highest activity was selected for each compound tested. Relative activity of the compound at this concentration was calculated (Table 5). […]

| SMILES | GI50 [1] [µM] | GI50 ([2]; 72 hours incubation) [µM] | GI50 (MCF-7 (breast carcinoma)) [µM] | GI50 [3] [µM] | GI50 [4] [µM] | GI50 [5] [µM] | GI50 ([6]; 72 hours incubation) [µM] | EC50 (Human lymphocytes) [µM] | Activity (%) [10^−5 mol · l^−1 KR = 100%] [7] [%] | Concentration with highest activity [7] | GI50 ([1]; Homo sapiens) [µM] | GI50 ([2]; Homo sapiens, K562, 72 hours incubation) [µM] | GI50 (MCF-7 (breast carcinoma); Homo sapiens) [µM] | GI50 ([3]; Homo sapiens, Fibroblast) [µM] | GI50 ([4]; Homo sapiens) [µM] | GI50 ([6]; Homo sapiens, HL-60, 72 hours incubation) [µM] |
| --- | --- | --- | --- | --- | --- | --- | --- | --- | --- | --- | --- | --- | --- | --- | --- | --- |
| O=P(O)(O)OC[C@H]1O[C@@H](n2cnc3c(NCc4cccc(F)c4)ncnc32)[C@H](O)[C@@H]1O [Compound 2, 6-(3-fluorobenzylamino)purine riboside-5′-monophosphate] | > 167 | 7 | 16.6 | > 167 | 15.7 | 4 | 0.92 | 11.5 | 103 ± 6 | 10^−5 mol · l^−1 | – | – | – | – | – | – |
| O=P(O)(O)OC[C@H]1O[C@@H](n2cnc3c(NCc4cccc(O)c4)ncnc32)[C@H](O)[C@@H]1O [Compound 22, 6-(3-hydroxybenzylamino)purine riboside-5′-monophosphate] | > 167 | > 167 | > 167 | > 167 | > 167 | 51.9 | 23.7 | 12.8 | – | – | – | – | – | – | – | – |
| COc1ccccc1CNc1ncnc2c1ncn2[C@@H]1O[C@H](COP(=O)(O)O)[C@@H](O)[C@H]1O [Compound 15, 6-(2-methoxybenzylamino)purine riboside-5-monophosphate] | 21.2 | 11.2 | > 167 | > 167 | > 167 | 3.2 | 2.3 | – | 108 ± 1 | 10^−5 mol · l^−1 | – | – | – | – | – | – |
| C/C(=C\CNc1ncnc2c1ncn2[C@@H]1O[C@H](CO)[C@@H](O)[C@H]1O)CO [zeatin riboside, reference compound] | > 167 | > 167 | > 167 | > 167 | > 167 | > 167 | > 167 | – | – | – | – | – | – | – | – | – |
| O=P(O)(O)OC[C@H]1O[C@@H](n2cnc3c(NCc4ccc(O)cc4)ncnc32)[C@H](O)[C@@H]1O [Compound 23, 6-(4-hydroxybenzylamino)purine riboside-5′-monophosphate] | > 167 | > 167 | > 167 | > 167 | > 167 | 39.7 | 9.5 | – | – | – | – | – | – | – | – | – |
| Nc1ncnc2c1ncn2[C@@H]1O[C@H](CO)[C@@H](O)[C@H]1O [adenosine] | – | – | – | – | – | > 167 | – | – | – | – | > 167 | > 167 | > 167 | > 167 | > 167 | > 167 |
| COc1cccc(CNc2ncnc3c2ncn3[C@@H]2O[C@H](COP(=O)(O)O)[C@@H](O)[C@H]2O)c1 [Compound 16, 6-(3-methoxybenzylamino)purine riboside-5′-monophosphate] | > 167 | > 167 | > 167 | > 167 | > 167 | 7.6 | 4.9 | – | 102 ± 1 | 10^−6 mol · l^−1 | – | – | – | – | – | – |
| O=P(O)(O)OC[C@H]1O[C@@H](n2cnc3c(NCc4cc(F)ccc4O)ncnc32)[C@H](O)[C@@H]1O [Compound 48, 6-(2-hydroxy-5-fluorobenzylamino)purine riboside-5′-monophosphate] | 9.1 | 13.4 | 16 | 58.7 | 10.7 | 0.5 | 0.53 | – | – | – | – | – | – | – | – | – |

From US9073961B2, “Substitution derivatives of N6 -benzyladenosine-5′-monophosphate, methods of preparation thereof, use thereof as medicaments, and therapeutic preparations containing these compounds” (UNIVERZITA PALACKEHO V OLOMOUCI, priority 2010, dated 2015)
